# Patent US20090203783A1, “THERAPEUTIC AGENT FOR ACUTE CEREBRAL INFARCT” (ONO PHARMACEUTICAL CO., LTD., priority 2005, published 2009)
# Tests used:
# Type in all cases: in vivo, human
# [1] = tested on: patients of acute cerebral infarction; experiment: Example 3 clinical trial, safety (adverse events); settings: 8 or 12 mg/kg/hr iv, 7 days
# Method: (§1) As a clinical trial, a double blind placebo-controlled parallel group study was carried out under the following conditions using patients of acute cerebral infarction as the object.
# (§2) A total of 7 times for one hour intravenous continuous administration at intervals of about 24 hours in each group (administration period: 7 days).
# (§3) Frequency of adverse event and contents thereof (symptom, causal relation and the like)
# [2] = tested on: patients of acute cerebral infarction; experiment: Example 1 clinical trial, modified Rankin Scale (mRS); settings: 10 mg/kg/hr iv, 5 days, after 3 months, administration 5.5 to 6 hours from onset
# Method: (§4) As a clinical trial, a double blind placebo-controlled parallel group study was carried out under the following conditions with patients of acute cerebral infarction as the object.
# (c) A patient who undergoes randomization by the study within 6 hours from the first infarction symptom and undergoes the first administration by the blind test (When the patient awoke under an infarction symptom which was not observed before sleeping, start of the infarction symptom is regarded as the started time of sleeping. When the started time is not clear, start of the infarction symptom is regarded as the time when the patient was lastly normal.);
# (f) A patient defined as a score of from 11 to 22 on NIH Stroke Scale, within 1 hour before the first administration;
# (§5) A total of 5 times for one hour intravenous continuous administration at intervals of about 24 hours in each group (administration period: 5 days).
# (§6) Evaluation method: Symptoms of patients were evaluated in accordance with the aforementioned list of marks of NIH Stroke Scale, about 1 month after or about 3 months after the commencement of administration. (2) Modified Rankin Scale (mRS) Evaluation method: Symptoms of patients were scored by classifying the symptoms of patients into the following grades of from 0 to 5, about 1 month after or about 3 months after the commencement of administration. 0: No symptoms at all. 1: No significant disability despite symptoms; able to carry out all usual duties and activities. 2: Slight disability; unable to carry out all previous activities, but able to look after own affairs without assistance. 3: Moderate disability; requiring some help, but able to walk without assistance. 4: Moderately severe disability; unable to walk without assistance and unable to attend to own bodily needs without assistance. 5: Severe disability; bedridden, incontinent and requiring constant nursing care and attention.
# [3] = tested on: patients of acute cerebral infarction; experiment: Example 2 clinical trial, safety (adverse events); settings: 0.4, 4 or 8 mg/kg/hr iv, 7 days
# Method: as §1, §2, §3
# [4] = tested on: patients of acute cerebral infarction; experiment: Example 1 clinical trial, Stroke Impact Scale (SIS) items 1a-1d, 4a; settings: about 3 months, 5 hours or more from onset
# Method: as §4, §5
# Based on the results of the above-mentioned efficacy evaluation items and safety evaluation items, therapeutic effect of the intravenous continuous administration of (2R)-2-propyloctanoic acid to cerebral infarction patients was evaluated. Additionally, in order to examine the therapeutic effect more in detail, improving effect of the intravenous continuous administration of (2R)-2-propyloctanoic acid for each of (a) [Arm strength], (b) [Grip], (c) strength of the legs [Leg], (d) strength of the ahead of the ankle [Ankle/foot], and (e) language [Naming] was evaluated after about 3 months from the commencement of administration, using the items 1a, 1b, 1c, Id and 4a of the Stroke Impact Scale (SIS). In this connection, the Stroke Impact Scale is a conventionally known evaluation method and can be obtained from an internet <URL: www.chrp.org/, www.strokecenter.org, www2.kumc.edu/coa/> and the like. Specifically, the evaluation of 1a, 1b, 1c and id is carried out by a mode of selecting any one of the answers, A lot of strength, Quite a bit of strength, Some strength, A little strength and No strength at all, for the following questions
# and five scores, four scores, 3 scores, 2 scores and 1 score are given in response to the respective answers.
# Additionally, the evaluation of 4a is carried out by a mode of selecting any one of the answers, Not difficult at all, A little difficult, Somewhat difficult and Very difficult and Extremely difficult, for the following questions
# In this case, the group P represents a placebo administration group, and the group L represents a (2R)-2-propyloctanoic acid 4 mg/kg/hr administration group, and the group H represents a (2R)-2-propyloctanoic acid 10 mg/kg/hr administration group. The evaluation result of each item was shown by a form of “(the number of patients having an evaluation score of 4 or more)/(the number of patients evaluated)”.
# [5] = tested on: patients of acute cerebral infarction; experiment: Example 1 clinical trial, safety (adverse events); settings: 4 or 10 mg/kg/hr iv, 5 days
# Method: as §4, §5, §3
# [6] = tested on: patients of acute cerebral infarction; experiment: Example 2 clinical trial, modified Rankin Scale (mRS); settings: 7 days
# Method: as §6, §1
# (e) A patient whose period of time from the onset of cerebral infarction until commencement of administration is 72 hour or less;
# as §2
# (§7) Symptoms of patients were evaluated after about 1 month or after about 3 months from the commencement of the administration, in accordance with the methods described in the aforementioned [EFFICACY EVALUATION ITEMS] of Example 1.
# [7] = tested on: patients of acute cerebral infarction; experiment: Example 3 clinical trial, efficacy evaluation items; settings: 7 days
# Method: as §1, §2, §7
smiles,measurement,setting,value
CCCCCC[C@@H](CCC)C(=O)O [(2R)-2-propyloctanoic acid],severe adverse event having a different frequency between drug group and placebo group,[1],not found
same,side effect in which its frequency increases depending on the dose,[1],not found
same,ratio of the number of patients whose mRS scores became 0 to 3,[2],31.5%
same,ratio of the number of patients whose mRS scores became 0 to 3,"[2]; patients of less than 80 years, NIH Stroke Scale 11 to 18",46.0%
same,ratio of the number of patients whose mRS scores became 0 to 3,[2]; patients of less than 80 years,39.0%
same,severe adverse event having a different frequency between drug group and placebo group,[3],not found
same,side effect in which its frequency increases depending on the dose,[3],not found
same,SIS Ankle/foot: (number of patients having an evaluation score of 4 or more)/(number of patients evaluated),"[4]; Group H, 10 mg/kg/hr",60/100
same,SIS Ankle/foot: ratio of patients with evaluation score of 4 or more,"[4]; Group H, 10 mg/kg/hr",(60%)
same,SIS Arm strength: (number of patients having an evaluation score of 4 or more)/(number of patients evaluated),"[4]; Group H, 10 mg/kg/hr",44/100
same,SIS Arm strength: ratio of patients with evaluation score of 4 or more,"[4]; Group H, 10 mg/kg/hr",(44%)
same,SIS Grip: (number of patients having an evaluation score of 4 or more)/(number of patients evaluated),"[4]; Group H, 10 mg/kg/hr",46/100
same,SIS Grip: ratio of patients with evaluation score of 4 or more,"[4]; Group H, 10 mg/kg/hr",(46%)
same,SIS Leg: (number of patients having an evaluation score of 4 or more)/(number of patients evaluated),"[4]; Group H, 10 mg/kg/hr",59/100
same,SIS Leg: ratio of patients with evaluation score of 4 or more,"[4]; Group H, 10 mg/kg/hr",(59%)
same,SIS Naming: (number of patients having an evaluation score of 4 or more)/(number of patients evaluated),"[4]; Group H, 10 mg/kg/hr",65/100
same,SIS Naming: ratio of patients with evaluation score of 4 or more,"[4]; Group H, 10 mg/kg/hr",(65%)
same,SIS Ankle/foot: (number of patients having an evaluation score of 4 or more)/(number of patients evaluated),"[4]; Group L, 4 mg/kg/hr",39/88
same,SIS Ankle/foot: ratio of patients with evaluation score of 4 or more,"[4]; Group L, 4 mg/kg/hr",(44%)
same,SIS Arm strength: (number of patients having an evaluation score of 4 or more)/(number of patients evaluated),"[4]; Group L, 4 mg/kg/hr",34/88
same,SIS Arm strength: ratio of patients with evaluation score of 4 or more,"[4]; Group L, 4 mg/kg/hr",(39%)
same,SIS Grip: (number of patients having an evaluation score of 4 or more)/(number of patients evaluated),"[4]; Group L, 4 mg/kg/hr",36/88
same,SIS Grip: ratio of patients with evaluation score of 4 or more,"[4]; Group L, 4 mg/kg/hr",(41%)
same,SIS Leg: (number of patients having an evaluation score of 4 or more)/(number of patients evaluated),"[4]; Group L, 4 mg/kg/hr",46/88
same,SIS Leg: ratio of patients with evaluation score of 4 or more,"[4]; Group L, 4 mg/kg/hr",(52%)
same,SIS Naming: (number of patients having an evaluation score of 4 or more)/(number of patients evaluated),"[4]; Group L, 4 mg/kg/hr",58/88
same,SIS Naming: ratio of patients with evaluation score of 4 or more,"[4]; Group L, 4 mg/kg/hr",(66%)
same,severe adverse events having a different frequency between drug group and placebo group,[5],not found
same,side effect in which its frequency increases depending on the dose,[5],not found
same,ratio of mRS occupying 0 to 2,"[6]; 0.4 mg/kg/hr iv, after 3 months, JCS I-1 to I-3 and NIH Stroke Scale 7 or more",48.1%
same,ratio of mRS occupying 0 to 2,"[6]; 4 mg/kg/hr iv, after 3 months, JCS I-1 to I-3 and NIH Stroke Scale 7 or more",47.9%
same,ratio of mRS occupying 0 to 2,"[6]; 8 mg/kg/hr iv, after 1 month",45.7%
same,ratio of mRS occupying 0 to 2,"[6]; 8 mg/kg/hr iv, after 3 months",58.1%
same,ratio of mRS occupying 0 to 2,"[6]; 8 mg/kg/hr iv, after 3 months, JCS I-1 to I-3 and NIH Stroke Scale 7 or more",63.0%
same,ratio of mRS occupying 0 to 2,"[6]; 8 mg/kg/hr iv, after 3 months, patients with JCS I-1 to I-3 before administration",69.1%
same,improving effects of the items shown in the efficacy evaluation items,[7]; 8 mg/kg/hr iv,excellent improving effects
same,improving effects of the items shown in the efficacy evaluation items,[7]; 12 mg/kg/hr iv,excellent improving effects
